“And” between values parts separate entries of the source, which are not always exact repeats. Equal values may be shown once.
System: nondiabetic NOD mice
Experiment: Blood glucose in nondiabetic NOD mice under WCDD301 dosing
Type: in vivo, mouse
Parameters: Blood glucose (Supplemental Figure 6B): unit: mg/dL
Conditions: for Blood glucose (Supplemental Figure 6B): WCDD301-treated, individual mice M1-M5
Method: We applied the following therapeutic regimens in the fed state for oral dosing of pearls containing WCDD301. The therapeutic regimen for diabetic NOD mice with moderate hyperglycemia (n = 6–9; 6 females/3 males) or nondiabetic ones with blood glucose levels of < 140 mg/dL (females, n = 5) was dose 7.5 mg/kg, dosage once a day, and excipient SAIB-Agar, 50–60 mg. The therapeutic regimen for STZ-induced diabetic mice with early severe hyperglycemia (n = 3, placebo group; n = 4 treatment group, females) was dose 10 mg/kg, dosage once a day, and excipient SAIB-Agar-malic acid, 50–60 mg.

CC(=O)OCC(N)(COC(C)=O)COC(C)=O [WCDD301, 2-(acetoxymethyl)-2-aminopropane-1,3-diyl diacetate]
Development of diabetes, prophylactic administration (NOD mice): appears to prevent the development of diabetes in NOD mice | Blood glucose (Supplemental Figure 6B) (Age (week) 10): 127 and 120 and 125 and 115 and 118 | Blood glucose (Supplemental Figure 6B) (Age (week) 19): 128 and 122 and 121 and 112 and 126 | Effect on euglycemia (nondiabetic NOD mice, Supplemental Figure 6B): nor did it affect euglycemia

Source: publication PMC10906223 (JCI Insight, 2024)
